# Molecular target: GLP-1R (Homo sapiens, UniProt P43220)
# Test: GLP-1R Activation - cAMP Assay
# Type: cell-based
# Details: cAMP increase in CHO cells stably expressing GLP-1R; each compound run on one of the two cAMP assays (Assay 1 or Assay 2, not specified)
# In short: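 cAMP rise read by HTRF after 30 min agonist exposure (10-point titration, 37 °C) in HBSS/20 mM Hepes/0.1% BSA, following 1 h pre-incubation. Cells: stable GLP-1R CHO line, 1,000/well, seeded overnight. Sigmoidal fit of response vs log concentration gives EC50.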
# Sequence of GLP-1R (P43220 24-463): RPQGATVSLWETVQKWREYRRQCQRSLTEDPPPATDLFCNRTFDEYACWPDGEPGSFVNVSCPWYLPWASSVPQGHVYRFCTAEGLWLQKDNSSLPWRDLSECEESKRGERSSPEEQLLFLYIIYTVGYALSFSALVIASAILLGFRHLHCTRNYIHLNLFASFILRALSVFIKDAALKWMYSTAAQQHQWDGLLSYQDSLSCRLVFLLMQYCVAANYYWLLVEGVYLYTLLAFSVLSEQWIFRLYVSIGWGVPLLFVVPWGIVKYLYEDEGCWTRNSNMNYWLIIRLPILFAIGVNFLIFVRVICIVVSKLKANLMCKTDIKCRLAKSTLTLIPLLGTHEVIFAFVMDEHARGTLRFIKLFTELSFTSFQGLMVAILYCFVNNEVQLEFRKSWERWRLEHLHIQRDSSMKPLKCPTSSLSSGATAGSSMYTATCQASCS
row,EC50 [nM],Structure (SMILES)
1,0.508,"COCCn1c(Cc2cc(F)c(-c3cccc(OCc4ccc(-n5ccnn5)nc4)n3)cc2F)nc2c(F)cc(C(=O)O)cc21 [Example 221, 2-(4-(6-((6-(1H-1,2,3-triazol-1-yl)pyridin-3-yl)methoxy)pyridin-2-yl)-2,5-difluorobenzyl)-4-fluoro-1-(2-methoxyethyl)-1H-benzo[d]imidazole-6-carboxylic acid]"
2,0.136,"COCCn1c(Cc2c(F)cc(-c3cccc(OCc4ccc(-n5ccnn5)cc4)n3)c(F)c2F)nc2c(F)cc(C(=O)O)cc21 [Example 222, 2-(4-(6-((4-(1H-1,2,3-triazol-1-yl)benzyl)oxy)pyridin-2-yl)-2,3,6-trifluorobenzyl)-4-fluoro-1-(2-methoxyethyl)-1H-benzo[d]imidazole-6-carboxylic acid]"
3,0.126,"COCCn1c(Cc2c(F)cc(-c3ccc(F)c(OCc4ccc(-n5ccnn5)cc4)n3)c(F)c2F)nc2c(F)cc(C(=O)O)cc21 [Example 223, 2-(4-(6-((4-(1H-1,2,3-triazol-1-yl)benzyl)oxy)-5-fluoropyridin-2-yl)-2,3,6-trifluorobenzyl)-4-fluoro-1-(2-methoxyethyl)-1H-benzo[d]imidazole-6-carboxylic acid]"
4,0.515,"N#Cc1ccc(COc2nc(-c3cc(F)c(Cc4nc5c(F)cc(C(=O)O)cc5n4C4COCC45CC5)cc3F)ccc2F)c(F)c1 (stereo not drawn) [Example 224, 2-(4-(6-((4-cyano-2-fluorobenzyl)oxy)-5-fluoropyridin-2-yl)-2,5-difluorobenzyl)-4-fluoro-1-(5-oxaspiro[2.4]heptan-7-yl)-1H-benzo[d]imidazole-6-carboxylic acid]"
5,7.14,"COCCn1c(Cc2cc(C)c(-c3ccc(F)c(OCc4ccc(C#N)cc4F)n3)cc2Cl)nc2c(F)cc(C(=O)O)cc21 [Example 225, 2-(2-chloro-4-(6-((4-cyano-2-fluorobenzyl)oxy)-5-fluoropyridin-2-yl)-5-methylbenzyl)-4-fluoro-1-(2-methoxyethyl)-1H-benzo[d]imidazole-6-carboxylic acid]"
6,0.022,"COCCn1c(Cc2c(F)cc(-c3cccc(OCc4cnc(-n5ccnn5)cc4Cl)n3)c(F)c2F)nc2c(F)cc(C(=O)O)cc21 [Example 226, 2-(4-(6-((4-chloro-6-(1H-1,2,3-triazol-1-yl)pyridin-3-yl)methoxy)pyridin-2-yl)-2,3,6-trifluorobenzyl)-4-fluoro-1-(2-methoxyethyl)-1H-benzo[d]imidazole-6-carboxylic acid]"
7,4.8,"COCCn1c(Cc2cc(C)c(-c3cccc(OCc4ccc(C#N)cc4F)n3)cc2Cl)nc2c(F)cc(C(=O)O)cc21 [Example 227, 2-(2-chloro-4-(6-((4-cyano-2-fluorobenzyl)oxy)pyridin-2-yl)-5-methylbenzyl)-4-fluoro-1-(2-methoxyethyl)-1H-benzo[d]imidazole-6-carboxylic acid]"
8,0.047,"CC1(C)COC[C@H]1n1c(Cc2cc(F)c(-c3ccc(F)c(OCc4ccc(Cl)cc4)n3)cc2F)nc2c(F)cc(C(=O)O)cc21 [Example 228, (S)-2-(4-(6-((4-chlorobenzyl)oxy)-5-fluoropyridin-2-yl)-2,5-difluorobenzyl)-1-(4,4-dimethyltetrahydrofuran-3-yl)-4-fluoro-1H-benzo[d]imidazole-6-carboxylic acid]"
9,0.135,"CC1(C)COC[C@H]1n1c(Cc2c(F)cc(-c3ccnc(OCc4ccc(Cl)cc4)n3)c(F)c2F)nc2c(F)cc(C(=O)O)cc21 [Example 229, (S)-2-(4-(2-((4-chlorobenzyl)oxy)pyrimidin-4-yl)-2,3,6-trifluorobenzyl)-1-(4,4-dimethyltetrahydrofuran-3-yl)-4-fluoro-1H-benzo[d]imidazole-6-carboxylic acid]"
10,0.034,"CC1(C)COC[C@H]1n1c(Cc2cc(F)c(-c3ccnc(OCc4ccc(Cl)cc4)n3)cc2F)nc2c(F)cc(C(=O)O)cc21 [Example 230, (S)-2-(4-(2-((4-chlorobenzyl)oxy)pyrimidin-4-yl)-2,5-difluorobenzyl)-1-(4,4-dimethyltetrahydrofuran-3-yl)-4-fluoro-1H-benzo[d]imidazole-6-carboxylic acid]"
11,0.049,"CC1(C)COC[C@H]1n1c(Cc2cc(F)c(-c3ccnc(OCc4ccc(Cl)cc4)n3)cc2F)nc2ccc(C(=O)O)cc21 [Example 231, (S)-2-(4-(2-((4-chlorobenzyl)oxy)pyrimidin-4-yl)-2,5-difluorobenzyl)-1-(4,4-dimethyltetrahydrofuran-3-yl)-1H-benzo[d]imidazole-6-carboxylic acid]"
12,0.118,"COCCn1c(Cc2c(F)cc(-c3ccc(F)c(OCc4ccc(C#N)cc4F)n3)c(F)c2F)nc2c(F)cc(C(=O)O)cc21 [Example 232, 2-(4-(6-((4-cyano-2-fluorobenzyl)oxy)-5-fluoropyridin-2-yl)-2,3,6-trifluorobenzyl)-4-fluoro-1-(2-methoxyethyl)-1H-benzo[d]imidazole-6-carboxylic acid]"
13,0.191,"CC1(C)COC[C@H]1n1c(Cc2ccc(-c3ccc(F)c(OCc4ccc(-n5ccnn5)cc4F)n3)cc2F)nc2c(F)cc(C(=O)O)cc21 [Example 235, (S)-1-(4,4-dimethyltetrahydrofuran-3-yl)-4-fluoro-2-(2-fluoro-4-(5-fluoro-6-((2-fluoro-4-(1H-1,2,3-triazol-1-yl)benzyl)oxy)pyridin-2-yl)benzyl)-1H-benzo[d]imidazole-6-carboxylic acid]"
14,0.203,"CC1(C)COC[C@H]1n1c(Cc2ccc(-c3ccc(F)c(OCc4ccc(-n5ccnn5)cc4F)n3)cc2F)nc2ccc(C(=O)O)cc21 [Example 236, (S)-1-(4,4-dimethyltetrahydrofuran-3-yl)-2-(2-fluoro-4-(5-fluoro-6-((2-fluoro-4-(1H-1,2,3-triazol-1-yl)benzyl)oxy)pyridin-2-yl)benzyl)-1H-benzo[d]imidazole-6-carboxylic acid]"
15,0.52,"Cc1cnc(COc2cccc(-c3cc(F)c(Cc4nc5ccc(C(=O)O)cc5n4[C@@H]4COCC4(C)C)cc3F)n2)c(F)c1 [Example 237, (S)-2-(2,5-difluoro-4-(6-((3-fluoro-5-methylpyridin-2-yl)methoxy)pyridin-2-yl)benzyl)-1-(4,4-dimethyltetrahydrofuran-3-yl)-1H-benzo[d]imidazole-6-carboxylic acid]"
16,0.127,"CC1(C)COC[C@H]1n1c(Cc2cc(F)c(-c3cccc(OCc4ccc5c(c4)CN(S(C)(=O)=O)C5)n3)cc2F)nc2c(F)cc(C(=O)O)cc21 [Example 240, (S)-2-(2,5-difluoro-4-(6-((2-(methylsulfonyl)isoindolin-5-yl)methoxy)pyridin-2-yl)benzyl)-1-(4,4-dimethyltetrahydrofuran-3-yl)-4-fluoro-1H-benzo[d]imidazole-6-carboxylic acid]"
17,0.013,"CC1(C)COC[C@H]1n1c(Cc2c(F)cc(-c3cccc(OCc4ccc(-n5ccnn5)cc4F)n3)c(F)c2F)nc2c(F)cc(C(=O)O)cc21 [Example 241, (S)-1-(4,4-dimethyltetrahydrofuran-3-yl)-4-fluoro-2-(2,3,6-trifluoro-4-(6-((2-fluoro-4-(1H-1,2,3-triazol-1-yl)benzyl)oxy)pyridin-2-yl)benzyl)-1H-benzo[d]imidazole-6-carboxylic acid]"
18,0.02,"CC1(C)COC[C@H]1n1c(Cc2c(F)cc(-c3cccc(OCc4ccc(Cl)cc4F)n3)c(F)c2F)nc2c(F)cc(C(=O)O)cc21 [Example 242, (S)-2-(4-(6-((4-chloro-2-fluorobenzyl)oxy)pyridin-2-yl)-2,3,6-trifluorobenzyl)-1-(4,4-dimethyltetrahydrofuran-3-yl)-4-fluoro-1H-benzo[d]imidazole-6-carboxylic acid]"
19,0.022,"CC1(C)COC[C@H]1n1c(Cc2c(F)cc(-c3cccc(OCc4ccc(Cl)cc4)n3)c(F)c2F)nc2c(F)cc(C(=O)O)cc21 [Example 243, (S)-2-(4-(6-((4-chlorobenzyl)oxy)pyridin-2-yl)-2,3,6-trifluorobenzyl)-1-(4,4-dimethyltetrahydrofuran-3-yl)-4-fluoro-1H-benzo[d]imidazole-6-carboxylic acid]"
20,0.015,"CC1(C)COC[C@H]1n1c(Cc2c(F)cc(-c3cccc(OCc4ccc(C#N)cc4)n3)c(F)c2F)nc2c(F)cc(C(=O)O)cc21 [Example 244, (S)-2-(4-(6-((4-cyanobenzyl)oxy)pyridin-2-yl)-2,3,6-trifluorobenzyl)-1-(4,4-dimethyltetrahydrofuran-3-yl)-4-fluoro-1H-benzo[d]imidazole-6-carboxylic acid]"
21,0.051,"CC1(C)COC[C@H]1n1c(Cc2c(F)cc(-c3cccc(OCc4ccc(C#N)cc4)n3)c(F)c2F)nc2ccc(C(=O)O)cc21 [Example 245, (S)-2-(4-(6-((4-cyanobenzyl)oxy)pyridin-2-yl)-2,3,6-trifluorobenzyl)-1-(4,4-dimethyltetrahydrofuran-3-yl)-1H-benzo[d]imidazole-6-carboxylic acid]"
22,0.065,"CC1(C)COC[C@H]1n1c(Cc2c(F)cc(-c3cccc(OCc4ccc(Cl)cc4)n3)c(F)c2F)nc2ccc(C(=O)O)cc21 [Example 246, (S)-2-(4-(6-((4-chlorobenzyl)oxy)pyridin-2-yl)-2,3,6-trifluorobenzyl)-1-(4,4-dimethyltetrahydrofuran-3-yl)-1H-benzo[d]imidazole-6-carboxylic acid]"
23,0.151,"CC1(C)COC[C@H]1n1c(Cc2c(F)cc(-c3cccc(OCc4ccc(Cl)cc4F)n3)c(F)c2F)nc2ccc(C(=O)O)cc21 [Example 247, (S)-2-(4-(6-((4-chloro-2-fluorobenzyl)oxy)pyridin-2-yl)-2,3,6-trifluorobenzyl)-1-(4,4-dimethyltetrahydrofuran-3-yl)-1H-benzo[d]imidazole-6-carboxylic acid]"
24,0.186,"CC1(C)COC[C@H]1n1c(Cc2cc(F)c(-c3cccc(OCc4ccc5c(c4)CN(S(C)(=O)=O)C5)n3)cc2F)nc2ccc(C(=O)O)cc21 [Example 248, (S)-2-(2,5-difluoro-4-(6-((2-(methylsulfonyl)isoindolin-5-yl)methoxy)pyridin-2-yl)benzyl)-1-(4,4-dimethyltetrahydrofuran-3-yl)-1H-benzo[d]imidazole-6-carboxylic acid]"
